Our source for the inhibition values is patent EP4247399B1, “COMPOSITION COMPRISING NATURAL EXTRACTS AND USES THEREOF” (Esserre Pharma Srl, priority 2020, dated 2022).

This experiment has as its target T1, HMG-CoA reductase (Homo sapiens, UniProt P04035).
T1 construct: purchased Sigma-Aldrich CS1090
T1 sequence (P04035 426-888 limits assumed): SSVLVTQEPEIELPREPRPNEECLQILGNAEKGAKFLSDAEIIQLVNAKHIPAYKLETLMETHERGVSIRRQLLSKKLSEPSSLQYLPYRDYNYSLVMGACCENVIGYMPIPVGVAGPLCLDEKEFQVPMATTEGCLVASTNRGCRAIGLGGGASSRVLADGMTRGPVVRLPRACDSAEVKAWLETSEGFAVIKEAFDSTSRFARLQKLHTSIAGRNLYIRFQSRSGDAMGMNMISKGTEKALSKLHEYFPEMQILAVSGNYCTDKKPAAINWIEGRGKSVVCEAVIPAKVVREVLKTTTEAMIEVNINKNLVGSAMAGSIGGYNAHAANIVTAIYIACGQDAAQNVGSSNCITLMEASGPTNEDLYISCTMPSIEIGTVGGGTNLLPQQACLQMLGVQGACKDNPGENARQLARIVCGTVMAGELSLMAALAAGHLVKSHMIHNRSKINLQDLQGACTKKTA
Put plainly: HMG-CoA reductase inhibition test (HMG-CoA Reductase Assay Kit, decrease in absorbance at 340 nm). It counts as biochemical. As to conditions: positive control.

Description: The purpose of the test is to evaluate the hypocholesterolemic activity of the test samples by determining the inhibition of the enzyme 3-hydroxy-3-methylglutaryl-CoA reductase (HMG-CoA reductase).
The test for the HMG-CoA reductase enzyme inhibitory capacity was performed using the special kit (HMG-CoA Reductase Assay Kit, Catalogue Number CS1090, Sigma-Aldrich) and related experimental protocol.
The experiments were carried out in triplicate.
5 mL of buffer were added to 50 mg of the test sample and the solution obtained was then suitably filtered and used for the test.
A 100 µM Pravastatin solution (0.042 mg/mL, Sigma Aldrich) was used as a positive control.
The samples thus prepared were stirred for 10 seconds. Absorbance was then measured at 340 nm for 10 minutes while maintaining the samples at 37°C.
The ability to inhibit enzyme activity was then expressed as percent inhibition and calculated according to the following Equation (1): %Hinibition = ((ΔAControl −ΔAsample)/(ΔAControl)) × 100% [formula] where the value of ΔA is given by the difference between the absorbance recorded at the start time and that recorded after 10 minutes for the control and for the sample respectively. […]

One may read the inhibition as the share of the control response that was lost under treatment. Read a high inhibition as a strong effect. Consider `CC[C@H](C)C(=O)O[C@H]1C[C@H](O)C=C2C=C[C@H](C)[C@H](CC[C@@H](O)C[C@@H](O)CC(=O)O)[C@H]21` [Pravastatin], for which, for the setting “Pravastatin 0.01 mg/mL (10 µg/mL)”, the inhibition at 10 µg/mL was determined as 99.8%. This compound came in with an inhibition at 100 µM (Pravastatin 0.042 mg/ml (100 µM)) of 99.6 ± 1.1%.
